According to patent US6040149A, “Assay for identifying agents which act on the ceramide-activated protein kinase, kinase suppressor of ras, and methods of using said agents” (priority 1997, dated 2000):

Tests used:
KSR/Raf-1 complex = test: Co-immunoprecipitation of KSR and Raf-1 from treated COS-7 cells; assay type: cell-based, mouse KSR (COS-7 cells); details: TNFα
Description: FIG. […] Cells were lysed with NP-40 buffer and subjected to 4 hr of immunoprecipitation with anti-Raf-1 antibody. Two controls, KSR and KSR with ceramide treatment, received protein A conjugated sepharose beads without anti-Raf-1 antibody. […] Data represent one of four similar experiments.
Cell lysates were subjected to immunoprecipitation with anti-Flag antibody. Immunoprecipitated samples were handled as in FIG. 24A except Western blot analysis was performed with anti-Raf-1 antibody. Data represent one of three similar experiments.
Anti-Raf-1 antibody conjugated beads were prepared by overnight incubation of 2 μl of anti-Raf-1 antibody (a kind gift of Dr. Debbie Morrison) with 5 mg of the protein A conjugated sepharose beads, followed by washing three times with NP-40 lysis buffer. […] Lysates (0.8 mg total protein) were then incubated for 4 hrs with anti-Raf-1 bound sepharose beads or anti-Flag conjugated agarose beads. The beads were washed vigorously 5 times, boiled in Laemmli sample buffer, and proteins were separated on 7.5% SDS-PAGE. After electrophoresis, the gel was transferred to PVDF membrane and probed with anti-Flag antibody or anti-Raf-1 antibody.

neutral sphingomyelinase = test: Sphingomyelin and ceramide concentrations in a cell-free system (HL-60 nuclei-free supernate); assay type: biochemical, human (HL-60 cells)
Description: TNF-α effects on sphingomyelin (A) and ceramide (B) concentrations in a cell-free system. HL-60 cells were grown in RPMI 1640 medium supplemented with 10% bovine calf serum and amino acids. To measure sphingomyelin, cells were resuspended (1×10^6 ml^-1), labeled for 48 hours in medium with [^3 H]choline (1 μCi ml^-1), in serum-free medium containing bovine insulin (5 μg ml^-1) and human transferrin (5 μg ml^-1). After 3 hours, cells were resuspended (150×10^6 ml^-1) in homogenization buffer (50 mM NaF, 5 mM EGTA, and 25 mM Hepes, pH 7.4), disrupted at 4° C. with 150 strokes of a tight-fitting Dounce homogenizer (Fisher Scientific, Pittsburgh, Pa.), and centrifuged for 5 minutes (500 g). The nuclei-free supernate was first incubated for 5 minutes at 4° C. with 30 nM human TNF-α (Genentech, South San Francisco, Calif.) or diluent (50 mM Hepes, pH 7.4). At time zero, 15 μl of supernate (112 μg per incubation) were added to a reaction mixture containing 30 μl of 25 mM Hepes, pH 7.4, 30 μl of 750 μM ATP, and 75 μl of reaction buffer (50 mM Hepes, pH 7.4 and 20 mM MgCl2) at 22° C. The reaction was terminated with CHCl3 :CH3 OH:HCl (100:100:1, v/v/v) and 150 μl of balanced salt solution (135 mM NaCl, 4.5 mM KCl, 1.5 mM CaCl2, 0.5 mM MgCl2, 5.6 mM glucose, and 10 mM Hepes, pH 7.2) containing 20 mM EDTA. Lipids in the organic phase extract were subjected to alkaline methanolysis to remove glycerophospholipids. Sphingomyelin recovery in the nuclei-free supernate was 93% of that in intact cells. A measure of 10^6 cell equivalents of supernate contained 50 μg of protein. Sphingomyelin was resolved by thin-layer chromatography (TLC) with CHCl3 :CH3 OH:CH3 COOH:H2 O (25:15:4:1.5) as solvent, identified by iodine vapor staining and quantified by liquid scintillation spectrometry. Ceramide was quantified with the diacylglycerol kinase reaction. Values (mean) are derived from triplicate determinations from one experiment representative of three similar studies for sphingomyelin and four similar studies for ceramide.
The binding of TNF-α to its receptor is detectable within 2 minutes and maximal by 5 to 10 minutes at 4° C. in membranes derived from HL-60 cells. Therefore, supernates from HL-60 cells, collected after a low-speed centrifugation to remove nuclei, were first incubated with TNF-α for 5 minutes at 4° C. to allow the formation of TNF-receptor complexes. Thereafter, reactions were initiated by warming supernates to 22° C. in a reaction mixture containing adenosine triphosphate (ATP) and Mg^2+ at pH 7.4.
These conditions were adopted to allow for activation of neutral sphingomyelinase. Under these conditions, TNF-α induced a time- and concentration-dependent reduction in sphingomyelin content (FIG. 9A). The effect of TNF-α was evident at 1 minute and maximal by 7.5 minutes. Sphingomyelin concentrations decreased 27% from a control concentration of 10.4±0.5 (mean±SEM) to 7.6±0.2 nmol per milligram (nmol mg^-1) of supernate protein (P<0.001). […] Concentrations of TNF-α of 300 pM were effective, with a maximal effect at 3 nM TNF-α [effective dose (ED50)≈500 pM]. Under the same conditions, ceramide increased quantitatively from 1.8±0.3 to 4.0±0.5 nmol mg^-1 (FIG. 9B). This effect was detectable at 1 minute (P<0.001) and maximal by 7.5 minutes. Thus, 2.8 nmol of sphingomyelin per milligram of supernate protein were lost for each 2.2 nmol of ceramide per milligram of supernate protein that was generated. […] Other choline-containing lipids, including phosphatidyl-choline, lysophosphatidylcholine, sphingosylphosphorylcholine, and 1,2-diacylglycerol were not affected by TNF-α.

Raf-1 = Raf-1 phosphorylation in intact HL-60 cells; assay type: cell-based, human (HL-60 cells)
Description: To examine this possibility, intact HL-60 cells were metabolically labeled with ^32 P-orthophosphate for 4 hr followed by stimulation with TNF for the indicated times (FIG. 20A). […] Raf-1 proteins were resolved by SDS-PAGE and autoradiographed.
FIG. 20A--300×10^6 cells were resuspended at 37° C. in 15 ml of serum-free phosphate-free RPMI medium ([…]) containing 6 mCi ^32 P-orthophosphate. After […], cells were resuspended into the same buffer without radiolabel (5×10^7 /point) and stimulated with TNF (1 nM). At the indicated times, ice-cold serum-free phosphate-free RPMI was added and cells were homogenized as described in FIG. 17 in RIPA lysis buffer. Cell debris was removed by centrifugation at 700×g for 5 min. […] After SDS-PAGE, Raf-1 was transferred to an Immobilon PVDF (Millipore) membrane according to the vendor's instructions. […] The data (CPM/Raf protein) are presented as fold of control and represent one of three studies performed in triplicate.

[1] = test system: ceramide-activated protein kinase; details: treatment of intact cells; literature; cited from earlier work

TNF-α
KSR complex formation with Raf-1 (KSR/Raf-1 complex): induced KSR to complex with Raf-1 | effect on other choline-containing lipids and 1,2-diacylglycerol (neutral sphingomyelinase; TNF-α): not affected | decrease in sphingomyelin concentration (neutral sphingomyelinase; TNF-α 30 nM, cell-free): 27% | ceramide generated (neutral sphingomyelinase; TNF-α, cell-free): 2.2 nmol per milligram of supernat | sphingomyelin lost (neutral sphingomyelinase; TNF-α, cell-free): 2.8 nmol per milligram of supernat | sphingomyelin concentration (neutral sphingomyelinase; after TNF-α, control 10.4±0.5, mean±SEM, P<0.001): 7.6±0.2 nmol per milligram (nmol mg^-1) of supernate protein | ceramide concentration (neutral sphingomyelinase; after TNF-α, from 1.8±0.3): 4.0 ± 0.5 nmol/mg | ED50 (sphingomyelin reduction) (neutral sphingomyelinase; cell-free): ≈ 500 pM | concentration of maximal effect (sphingomyelin reduction) (neutral sphingomyelinase; cell-free): 3 nM | effective concentration (sphingomyelin reduction) (neutral sphingomyelinase; cell-free): 300 pM | onset of sphingomyelin reduction (neutral sphingomyelinase; cell-free): 1 min | time to maximal ceramide increase (neutral sphingomyelinase; cell-free): ≤ 7.5 min | time to maximal sphingomyelin reduction (neutral sphingomyelinase; cell-free): ≤ 7.5 min | onset of ceramide increase (neutral sphingomyelinase; cell-free, P<0.001): 1 min | duration of elevated Raf-1 phosphorylation (Raf-1; TNF): at least 20 min | Raf-1 phosphorylation in intact HL-60 cells (Raf-1; TNF 1 nM, ceramide, sphingomyelinase 10 mU/ml): increased within seconds | enhancement of CAP kinase autophosphorylation / activity [1]: 5-10 fold
